Experimental data published in patent publication US10760065B2, “Tuning microbial populations with programmable nucleases” (priority 2013, dated 2020).
Values after ≈ are worked out from the molar mass of the structure shown.

How the values were obtained:
EMG2 pSHV-18 = assay: MIC determination by broth microdilution; assay type: cell-based, E. coli; settings: strain EMG2 pSHV-18, LB broth; for MIC: Escherichia coli, read-out: Minimum Inhibitory Concentration (MIC)
Description: (§1) MICs were determined by broth microdilution using LB broth according to the CLSI guidelines (Clinical and Laboratory Standards Institute. Methods for Dilution Antimicrobial Susceptibility Tests for Bacteria That Grow Aerobically; Approved Standard—Seventh Edition. 64 (2006)).

EMG2 pNDM-1 = assay: MIC determination by broth microdilution; assay type: cell-based, E. coli; settings: strain EMG2 pNDM-1, LB broth; for MIC: Escherichia coli, read-out: Minimum Inhibitory Concentration (MIC)
Description: as §1

EMG2 gyrAD87G = assay: MIC determination by broth microdilution; assay type: cell-based, E. coli; settings: strain EMG2 gyrAD87G, LB broth; for MIC: Escherichia coli, read-out: Minimum Inhibitory Concentration (MIC)
Description: as §1

EMG2 Wild-Type = assay: microbe, parasite or virus in culture; assay type: cell-based, E. coli; settings: strain EMG2 Wild-Type, LB broth; for MIC: Escherichia coli, read-out: Minimum Inhibitory Concentration (MIC)
Description: as §1

EHEC strain = assay: Antibiotic susceptibility of the EHEC strain; assay type: cell-based, E. coli
EHEC = assay: Galleria mellonella infection model, survival; assay type: in vivo; settings: ΦRGNeae MOI ~30; chloramphenicol or carbenicillin 32 mg/kg; Log-rank p<0.05
Description: Galleria mellonella larvae were injected with either PBS (uninfected) or approximately 4×10^5 colony forming units (CFU) of EHEC. […] Survival curves represent an aggregate of four independent experiments, each with 20 worms per treatment group (n=80). […] G. mellonella larvae (n=40) were injected with PBS or approximately 3×10^5 colony forming units (CFU) of EHEC. Larvae were subsequently treated with PBS, ΦRGNeae at MOI ˜30, chloramphenicol, or carbenicillin. The antibiotics were both applied at a concentration of 32 mg/kg, corresponding to the CLSI resistance breakpoints for Enterobacteriaceae (32 μg/mL).
Larvae of the model organism Galleria mellonella (Desbois, A. P. & Coote, P. J. Adv. Appl. Microbiol. 78, 25-53 (2012)) were purchased from Vanderhorst Wholesale, Inc. (St. Marys, Ohio, USA) and received in the final larval instar for survival assays. Larvae were removed from food source, allowed to acclimate for at least 24 h at room temperature in the dark, and used within 4 days of receipt. […] Larvae were incubated at 37° C. and survival was monitored at 12 hour intervals for 72 hours, with death indicated by lack of movement and unresponsiveness to touch (Desbois, A. P. & Coote, P. J. Adv. Appl. Microbiol. 78, 25-53 (2012)). Kaplan-Meier survival curves were generated on the data pooled from four independent experiments and analyzed with the log-rank test using GraphPad Prism.

Molecule | MIC (EMG2 pSHV-18) [µg/mL] | MIC (EMG2 pNDM-1) [µg/mL] | MIC (EMG2 gyrAD87G) [µg/mL] | MIC (EMG2 Wild-Type) [µg/mL] | further results
CC1(C)S[C@@H]2[C@H](NC(=O)[C@H](N)c3ccccc3)C(=O)N2[C@H]1C(=O)O [AMP, ampicillin] | 64 (≈ 183 µM) | > 64 | 4 (≈ 11.4 µM) | 2 (≈ 5.72 µM) | –
gentamicin | – | – | – | – | Minimum Inhibitory Concentration (MIC) (EMG2 pSHV-18): >64 µg/mL; Minimum Inhibitory Concentration (MIC) (EMG2 pNDM-1): >64 µg/mL; Minimum Inhibitory Concentration (MIC) (EMG2 gyrAD87G): 4 µg/mL; Minimum Inhibitory Concentration (MIC) (EMG2 Wild-Type): 4 µg/mL
CC1(C)S[C@@H]2[C@H](NC(=O)C(C(=O)O)c3ccccc3)C(=O)N2[C@H]1C(=O)O (stereo partly shown) [carbenicillin] | – | – | – | – | susceptibility of EHEC strain (EHEC strain): susceptible; survival of EHEC-infected larvae, comparison with antibiotics (EHEC): superior to ΦRGNeae treatment
CC1COc2c(N3CCN(C)CC3)c(F)cc3c(=O)c(C(=O)O)cn1c23 (stereo not shown) [OFX, ofloxacin] | – | – | 0.5 (≈ 1.38 µM) | 0.125 (≈ 0.346 µM) | –
O=C(N[C@H](CO)[C@H](O)c1ccc([N+](=O)[O-])cc1)C(Cl)Cl [chloramphenicol] | – | – | – | – | susceptibility of EHEC strain (EHEC strain): resistant
CO/N=C(\C(=O)N[C@@H]1C(=O)N2C(C(=O)O)=C(COC(C)=O)CS[C@H]12)c1csc(N)n1 [CTX, cefotaxime] | 0.25 (≈ 0.549 µM) | > 64 | ≤ 0.0625 | ≤ 0.0625 | –
CC(C)(O/N=C(\C(=O)N[C@@H]1C(=O)N2C(C(=O)[O-])=C(C[n+]3ccccc3)CS[C@H]12)c1csc(N)n1)C(=O)O [CAZ, ceftazidime] | 1 (≈ 1.83 µM) | > 64 | – | 0.25 (≈ 0.457 µM) | –
C[C@@H](O)[C@H]1C(=O)N2C(C(=O)O)=C(SCCN=CN)C[C@H]12 [IPM, imipenem] | – | 32 (≈ 107 µM) | – | 0.25 (≈ 0.835 µM) | –
